Measurements as given in patent publication US20230123334A1, “AMINO LIPID COMPOUND, PREPARATION METHOD THEREFOR, AND APPLICATION THEREOF” (SHENZHEN SHENXIN BIOTECHNOLOGY CO., LTD., priority 2020, published 2023).

Tests used:
[1] = test system: BALB/c mice; experiment: In vivo delivery of luciferase mRNA (Fluc mRNA) by lipid nanoparticles, in vivo imaging; conditions: 0.5 mg/kg Fluc mRNA, after 12 hours
Method: (§1) The amino lipid compound of the invention was mixed with DOPE, cholesterol and PEG2000-DMG in a molar ratio of 45:10:42.5:2.5, and dissolved in absolute ethanol such that the molar concentration of the amino lipid compound was 0.001-0.01 mmol/L. By using a microinjection pump, the resultant ethanol solution and a sodium acetate solution (50 mM, pH=4.0) in which luciferase mRNA (Fluc mRNA, TriLink) was dissolved were mixed in a volume ratio of 1:3 in a microchannel chip to prepare a crude solution of lipid nanoparticles, which was then dialyzed in 1×PBS at a controlled temperature of 4° C. for 6 h using a dialysis box (Fisher, MWCO 20,000) and filtered through a 0.22 μm microporous filter membrane before use. The mass ratio of the amino lipid compound to Fluc mRNA was about 10:1. The resultant solution of lipid nanoparticles (LNPs) was administered to the tested animals by subcutaneous administration.
(§2) The preparation method was the same as Formulation method 1, except that amino lipid compound, DSPC, cholesterol and PEG2000-DMG were used in a molar ratio of 50:10:38.5: 1.5. The resultant solution of lipid nanoparticles (LNPs) was administered to the tested animals by tail vein and intramuscular injection.
Animal Preparation: 6-week aged female BALB/c mice weighed about 20 g were selected and fed in a SPF-grade feeding room. Animal tests were conducted strictly according to the guidelines of national health institutions and the requirements of animal ethics.
In vivo delivery: 9 mice were assigned randomly to each group, and the lipid nanoparticle solution was injected by three routes of administration, i.e., subcutaneous, intramuscular and tail vein injection at a dosage of 0.5 mg/kg Fluc mRNA (3 mice for each route of administration). After 12 hours, 200 μL of 10 mg/mL potassium salt of […] (PerkinElmer) was injected into each mouse through the tail vein. After 10 min, the mice were placed under an in vivo imaging system (IVIS-200, Xenogen) to observe the total fluorescence intensity of each mouse and take photographs for record. The expression intensity of Fluc mRNA delivered by representative amino lipid compounds through the three routes of administration are shown in Table 5-7. DLin-MC3 was used as control.

[2] = test system: HEK293 cells; experiment: Preliminary screening as DNA vectors, GFP transfection of HEK293 cells; format: cell-based; conditions: HEK293 cells; lipid/DOPE liposome with 75 ng plasmid DNA (psin-EGFP-IRES-Puro); number of cells expressing GFP divided by total number of nuclei (Hoechst)
Method in brief: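 Lipid + DOPE liposomes (NaOAc, pH 5.6) complexed w/ 75 ng psin-EGFP-IRES-Puro, 30 min RT; added to 3-5×10^4 HEK293/well, 37° C. Hoechst 0.2 μg/mL at 20-24 h, imaged after further 20-24 h. Efficiency = GFP+ cells / total nuclei.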

[3] = test system: HEK293 cells; experiment: Preliminary screening as mRNA vectors, EGFP mRNA transfection of HEK293 cells; format: cell-based; conditions: HEK293 cells, 96-well plates, EGFP mRNA 50 ng per well; percentage of GFP fluorescent cells relative to total number of cells (Hoechst)
Method in brief: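 Each well of HEK293 cells received 50 ng of EGFP mRNA. Efficiency was expressed as percent GFP-expressing cells over Hoechst-defined total cell number.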

[4] = Particle size and PDI of lipid nanoparticles (Nano-ZSZEN3600, Malvern); format: physicochemical; conditions: LNPs; for Particle size (nm): Fluc mRNA
Method: as §1
Characterization of particle size: the particle size and PDI of the prepared lipid nanoparticles were determined by Nano-ZSZEN3600 (Malvern). 40 uL of LNP solution was taken for particle size measurement with circulation for three times, 30 s for each circulation.
as §2

[5] = Encapsulation rate of LNP RNA (Qubit RNA HS Assay kit); format: physicochemical; conditions: LNPs
Method: as §1
Detection of encapsulation rate: the concentration of LNP RNA was detected by Qubit® RNA HS Assay kit. The theoretical RNA concentration was given by the total amount of RNA input divided by the total volume of the final solution.
as §2

[6] = test system: cardiomyocytes; experiment: Screening as DNA vectors in cardiomyocytes; format: cell-based; design: concentration or dose not given beside the values; conditions: method as Example 4
Method in brief: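 hESC-derived cardiomyocytes in DMEM with 10% FBS were transfected with a GFP DNA vector; Lipofectamine Stem served as positive control. Read-out: percentage of GFP-positive cells relative to total cells counted by Hoechst nuclear stain.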

[7] = test system: Hela cells; experiment: Transfection of Hela cell line, mRNA vectors; format: cell-based; conditions: 50 ng EGFP mRNA per well
Method in brief: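 Transfection efficiency was scored as GFP-fluorescent cells over Hoechst-stained total nuclei, with Lipofectamine2000 as reference reagent. Each well of HeLa cells, grown in DMEM plus 10% FBS, received 50 ng EGFP mRNA.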

[8] = test system: MCF7 cells; experiment: Transfection of MCF7 cell line, DNA vectors; format: cell-based; design: concentration or dose not given beside the values; conditions: plasmid DNA, GFP cells / total cells
Method in brief: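 Read-out: GFP-positive cells as % of all Hoechst-stained nuclei after 96-well transfection of MCF7 cells grown in serum-supplemented DMEM. Positive control was Lipofectamine2000, used per manufacturer's protocol.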

[9] = test system: embryonic stem cells (hESC2); experiment: Screening as DNA vectors in embryonic stem cells, flow cytometry; format: cell-based; conditions: 75 ng plasmid DNA, 48 hours after transfection, flow cytometer
Method in brief: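 hESC2 cells in mTeSR1 on matrigel transfected with 75 ng pSin-EGFP-IRES-Puro complexed with amino lipid/DOPE liposomes formed in sodium acetate pH 5.6; 37 °C, 5% CO2. After 48 h, GFP-positive cells counted by flow cytometry (≥2000 cells), efficiency also expressed relative to Lipofectamine Stem.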

[10] = test system: MCF7 cells; experiment: Transfection of MCF7 cell line, mRNA vectors; format: cell-based; conditions: 50 ng EGFP mRNA per well
Method in brief: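 Efficiency was scored as the fraction of GFP-fluorescent cells over all Hoechst-counted cells after delivery of 50 ng EGFP mRNA per well. Cells were MCF7 grown in serum-supplemented DMEM, and Lipofectamine2000 served as reference.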

[11] = test system: cardiomyocytes; experiment: Screening as mRNA vectors in cardiomyocytes; format: cell-based; conditions: 50 ng EGFP mRNA per well
Method in brief: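 Cardiomyocytes differentiated from hESC, in DMEM with 10% FBS, were transfected with 50 ng EGFP mRNA per well. The read-out was GFP-positive cells as a percentage of Hoechst-stained nuclei, with Lipofectamine Stem as positive control.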

[12] = test system: Hela cells; experiment: Transfection of Hela cell line, DNA vectors; format: cell-based; conditions: 75 ng plasmid DNA, GFP cells / total cells
Method in brief: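 Amino lipid/DOPE liposomes in sodium acetate pH 5.6 were complexed with 75 ng psin-EGFP-IRES-Puro plasmid for 30 min at room temperature, then mixed with 3-5×10^4 Hela cells in DMEM/10% FBS at 37° C. Hoechst stain after 20-24 h, imaging after a further 20-24 h. Efficiency = GFP-positive cells / total nuclei.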

[13] = test system: embryonic stem cells (hESC2); experiment: Screening as mRNA vectors in embryonic stem cells; format: cell-based; conditions: 50 ng EGFP mRNA per well
Method in brief: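 EGFP mRNA (50 ng per well) transfected into hESC2 cells grown in mTeSR1; Lipofectamine Stem served as positive control. Read-out: GFP-fluorescent cells as percentage of total cells.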

[14] = Formulation Method 1 (amino lipid:DOPE:cholesterol:PEG2000-DMG 45:10:42.5:2.5)
[15] = Formulation method 2 (amino lipid:DSPC:cholesterol:PEG2000-DMG 50:10:38.5:1.5)

Row | PDI ([4]; Formulation Method 1) | Particle size (nm) [4, 14] [nm] | PDI ([4]; Formulation method 2) | Particle size (nm) [4, 15] [nm] | Encapsulation rate ([5]; Formulation Method 1) [%] | Encapsulation rate ([5]; Formulation method 2) [%] | SMILES | Fluorescence intensity (expression intensity of Fluc mRNA) ([1]; intramuscular administration) | Fluorescence intensity (expression intensity of Fluc mRNA) ([1]; subcutaneous administration) | Fluorescence intensity (expression intensity of Fluc mRNA) ([1]; tail vein administration) | Absolute DNA transfection efficiency in HEK293 cells [2] [%] | Absolute mRNA transfection efficiency in HEK293 cells [3] [%] | Absolute DNA transfection efficiency in cardiomyocytes [6] [%] | Absolute mRNA transfection efficiency in Hela cells [7] [%] | Absolute DNA transfection efficiency in MCF7 cells [8] [%] | Absolute DNA transfection efficiency in embryonic stem cells [9] [%] | Absolute mRNA transfection efficiency in MCF7 cells [10] [%] | Absolute mRNA transfection efficiency in cardiomyocytes [11] [%] | Absolute DNA transfection efficiency in Hela cells [12] [%] | Absolute mRNA transfection efficiency in embryonic stem cells [13] [%]
1 | 0.03 | 136 ± 5 | 0.04 | 125 ± 5 | 99.5 | 99.2 | CCCCCCCCCCCCCCCCSc1nc(NCC2CCN(C)CC2)nc(SCCCCCCCCCC)n1 [Compound S10S16D10] | 3.2E+06 | 4.7E+07 | 2.9E+06 | 79.4 | 47.4 | – | – | – | – | – | – | – | –
2 | 0.02 | 79 ± 5 | 0.01 | 95 ± 5 | 99.2 | 98.8 | CCCCCCCCCCCCCCCSc1nc(NCCCCCCCCCCC)nc(NCCN2CCN(C)CC2)n1 [Compound S15N11D5] | 3.7E+06 | 1.9E+08 | 3.7E+06 | – | – | – | – | – | – | – | – | – | –
3 | 0.04 | 90 ± 5 | 0.03 | 120 ± 5 | 97.2 | 98.6 | CCCCCCCCCCCCCCCCSc1nc(NCCCCCCCC)nc(NCC2CCN(C)CC2)n1 [Compound S16N8D10] | 3.9E+06 | 3.7E+08 | 3.2E+06 | – | – | – | – | – | – | – | – | – | –
4 | 0.08 | 87 ± 4 | 0.06 | 127 ± 5 | 98.9 | 99.1 | CCCCCCCCCCCCCCCCSc1nc(NCCCCCCCCC)nc(NCCN2CCCC2)n1 [Compound S16N9D3] | 4.3E+06 | 2.7E+07 | 5.3E+06 | – | – | – | – | – | – | – | – | – | –

Further lines, the compound ahead of its results:

Row | SMILES | PDI ([4]; Formulation Method 1) | Particle size (nm) [4, 14] [nm] | PDI ([4]; Formulation method 2) | Particle size (nm) [4, 15] [nm] | Encapsulation rate ([5]; Formulation Method 1) [%] | Encapsulation rate ([5]; Formulation method 2) [%] | Fluorescence intensity (expression intensity of Fluc mRNA) ([1]; intramuscular administration) | Fluorescence intensity (expression intensity of Fluc mRNA) ([1]; subcutaneous administration) | Fluorescence intensity (expression intensity of Fluc mRNA) ([1]; tail vein administration) | Absolute DNA transfection efficiency in HEK293 cells [2] [%] | Absolute mRNA transfection efficiency in HEK293 cells [3] [%] | Absolute DNA transfection efficiency in cardiomyocytes [6] [%] | Absolute mRNA transfection efficiency in Hela cells [7] [%] | Absolute DNA transfection efficiency in MCF7 cells [8] [%] | Absolute DNA transfection efficiency in embryonic stem cells [9] [%] | Absolute mRNA transfection efficiency in MCF7 cells [10] [%] | Absolute mRNA transfection efficiency in cardiomyocytes [11] [%] | Absolute DNA transfection efficiency in Hela cells [12] [%] | Absolute mRNA transfection efficiency in embryonic stem cells [13] [%]
5 | CCCCCCCCCCCCCCCCSc1nc(NCCCN2CCN(C)CC2)nc(SCCCCCCCC)n1 [Compound S8S16D9] | 0.01 | 96 ± 5 | 0.02 | 115 ± 5 | 98.7 | 99.4 | 8.2E+06 | 4.2E+06 | 6.5E+06 | 6.7 | 1.5 | – | – | – | – | – | – | – | –
6 | CCCCCCCCCCCCCCCSc1nc(NCCCN2CCN(C)CC2)nc(SCCCCCCCCC)n1 [Compound S9S15D9] | – | – | – | – | – | – | – | – | – | 25.3 | 40.4 | 1.3 | 12.6 | 22.5 | 21.6 | 27.6 | 7.1 | 12.6 | 13.3
7 | CCCCCCCCCCCCCCCSc1nc(NCC2CCN(C)CC2)nc(SCCCCCCCCC)n1 [Compound S9S15D10] | – | – | – | – | – | – | – | – | – | 56.1 | 94.8 | 24.8 | 28.7 | 58.8 | 16.8 | 49.4 | 4.3 | 28.7 | 23.0
8 | CCCCCCCCCCCCSc1nc(NCCCN2CCOCC2)nc(SCCCCCCCCCCC)n1 [Compound S11S12D8] | 0.02 | 80 ± 5 | 0.01 | 90 ± 5 | 98.3 | 98.9 | 4.7E+06 | 1.1E+07 | 3.8E+06 | 10.7 | 6.7 | – | – | – | – | – | – | – | –
9 | CCCCCCCCCCCCCNc1nc(NCCCN(C)C)nc(SCCCCCCCCCCCC)n1 [Compound S12N13D6] | 0.05 | 89 ± 5 | 0.04 | 96 ± 5 | 99.0 | 99.2 | 1.2E+06 | 8.6E+06 | 3.9E+06 | – | – | – | – | – | – | – | – | – | –
10 | CCCCC/C=C\C/C=C\CCCCCCCCC(CCCCCCCC/C=C\C/C=C\CCCCC)OC(=O)CCCN(C)C [DLin-MC3, reference compound] | – | – | – | – | – | – | 2.7E+07 | 3.1E+06 | 2.7E+07 | – | – | – | – | – | – | – | – | – | –
